Data reported in US20240158446A1, “CYCLIC COMPOUND HAVING SELECTIVE INHIBITORY ACTION ON KRAS OVER HRAS AND NRAS” (CHUGAI SEIYAKU KABUSHIKI KAISHA, priority 2021, published 2024).
Read-outs that look alike come from different tables or passages of the source.

What was measured:
[1] = molecular target: GDP-bound KRAS wild-type protein (Homo sapiens, UniProt P01116); test: Binding to KRAS by surface plasmon resonance (SPR), Single Cycle Kinetics; conditions: SPR, Single Cycle Kinetics
[2] = tested on: human lung cancer strain NCI-H441; conditions: read-out: NCI-H441 cell proliferation inhibitory activity, 50% proliferation inhibitory concentration (IC50 value); NCI-H441, four days, CellTiter-Glo;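 also: cell proliferation inhibition after four days measured by CellTiter-Glo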
[3] = molecular target: GDP-bound NRAS wild-type protein (Homo sapiens, UniProt P01111); test: Binding to NRAS by surface plasmon resonance (SPR), Single Cycle Kinetics; conditions: SPR; for NRAS/KRAS (ratio of KD value for NRAS to KD value for KRAS): GDP-bound NRAS wild-type protein vs GDP-bound KRAS wild-type protein
GDP-bound NRAS wild-type protein, sequence (P01111 whole entry): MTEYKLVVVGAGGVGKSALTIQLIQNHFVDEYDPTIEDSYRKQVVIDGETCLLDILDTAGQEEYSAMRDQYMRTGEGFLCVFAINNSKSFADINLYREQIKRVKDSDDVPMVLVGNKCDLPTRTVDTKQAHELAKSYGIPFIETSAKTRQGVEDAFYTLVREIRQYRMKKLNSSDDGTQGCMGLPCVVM

[4] = molecular target: GDP-bound HRAS wild-type protein (Homo sapiens, UniProt P01112); test: Binding to HRAS by surface plasmon resonance (SPR), Single Cycle Kinetics; conditions: SPR; for HRAS/KRAS (ratio of KD value for HRAS to KD value for KRAS): GDP-bound HRAS wild-type protein vs GDP-bound KRAS wild-type protein
GDP-bound HRAS wild-type protein, sequence (P01112 whole entry): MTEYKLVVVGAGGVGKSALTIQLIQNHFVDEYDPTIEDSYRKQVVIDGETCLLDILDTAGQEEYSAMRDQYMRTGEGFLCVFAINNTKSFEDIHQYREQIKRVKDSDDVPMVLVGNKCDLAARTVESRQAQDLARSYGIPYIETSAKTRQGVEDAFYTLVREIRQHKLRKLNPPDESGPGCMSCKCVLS

[5] = 1:1 binding model, read-out: KD value with respect to GDP-bound KRAS wild-type protein
[6] = GDP-bound KRAS wild-type protein, read-out: KRAS KD

GDP-bound KRAS wild-type protein, sequence (P01116 whole entry): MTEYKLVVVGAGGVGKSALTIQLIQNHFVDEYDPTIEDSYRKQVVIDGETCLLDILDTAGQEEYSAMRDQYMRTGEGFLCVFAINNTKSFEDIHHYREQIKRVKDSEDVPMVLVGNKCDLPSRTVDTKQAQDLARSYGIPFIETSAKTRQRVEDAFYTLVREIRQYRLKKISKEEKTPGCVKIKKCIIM

SMILES	Kd [1, 5] [nM]	Kd [1, 6] [nM]	IC50 [2] [nM]	NRAS/KRAS (ratio of KD value for NRAS to KD value for KRAS) [3]	ratio of the KD value with respect to GDP-bound NRAS wild-type protein to the KD value with respect to KRAS [3]	HRAS/KRAS (ratio of KD value for HRAS to KD value for KRAS) [4]	ratio of the KD value with respect to GDP-bound HRAS wild-type protein to the KD value with respect to KRAS [4]
CCO[C@@H]1C[C@H]2C(=O)NC3(CC(C)(C)C3)C(=O)N(C)[C@@H](C3CCCC3)C(=O)N(C)[C@H](C(=O)N3CCCCC3)CC(=O)N(C)[C@H]3CCCCc4ccc(cc4)C[C@@H](C(=O)N(C)CC(=O)N[C@@H](CCc4ccc(C(F)(F)F)c(OC)c4)C(=O)N2C1)N1CC/C=C\C[C@@H](C1=O)N(C)C(=O)CN(C)C(=O)[C@H]([C@@H](C)CC)NC3=O [PP3093, (1S,7S,11R,13S,19S,22S,26S,29S,35S,37Z)-19-cyclopentyl-11-ethoxy-7-[2-[3-methoxy-4-(trifluoromethyl)phenyl]ethyl]-3,3′,3′,18,21,25,31,34-octamethyl-29-[(1S)-1-methylpropyl]-22-(piperidine-1-carbonyl)spiro[3,6,9,15,18,21,25,28,31,34,41-undecazapentacyclo[24.15.9.2^43,46.1^35,41.0^9,13]tripentaconta-37,43(52),44,46(51)-tetraene-16,1′-cyclobutane]-2,5,8,14,17,20,24,27,30,33,53-undecone]	0.097	0.097	3.2	A (a compound having 10 or more and less than 20 is denoted as A)	A (a compound having 10 or more and less than 20 is denoted as A)	A (a compound having 10 or more and less than 20 is denoted as A)	A (a compound having 10 or more and less than 20 is denoted as A)
CCCO[C@@H]1C[C@H]2C(=O)NC3(CC(C)(C)C3)C(=O)N(C)[C@@H](C3CCCC3)C(=O)N(C)[C@H](C(=O)N3CCCC3)CC(=O)N(C)[C@H]3CCCCc4ccc(cc4)C[C@@H](C(=O)N(C)CC(=O)N[C@@H](CCc4ccc(C(F)(F)F)c(OC)c4)C(=O)N2C1)N1CC/C=C\C[C@@H](C1=O)N(C)C(=O)CN(C)C(=O)[C@H]([C@@H](C)CC)NC3=O [PP3094, (1S,7S,11R,13S,19S,22S,26S,29S,35S,37Z)-19-cyclopentyl-7-[2-[3-methoxy-4-(trifluoromethyl)phenyl]ethyl]-3,3′,3′,18,21,25,31,34-octamethyl-29-[(1S)-1-methylpropyl]-11-propoxy-22-(pyrrolidine-1-carbonyl)spiro[3,6,9,15,18,21,25,28,31,34,41-undecazapentacyclo[24.15.9.2^43,46.1^35,41.0^9,13]tripentaconta-37,43(52),44,46(51)-tetraene-16,1′-cyclobutane]-2,5,8,14,17,20,24,27,30,33,53-undecone]	0.081	0.081	2.2	A (a compound having 10 or more and less than 20 is denoted as A)	A (a compound having 10 or more and less than 20 is denoted as A)	B (a compound having 3 or more and less than 10 is denoted as B)	B (a compound having 3 or more and less than 10 is denoted as B)
CCC[C@H]1C(=O)N[C@@H]([C@@H](C)CC)C(=O)N(C2CC2)CC(=O)N(C)[C@H]2C/C=C\CCN(C2=O)[C@@H](Cc2ccc(C(F)(F)F)cc2)C(=O)N(C)CC(=O)N[C@@H](CCc2ccc(C(F)(F)F)c(OC)c2)C(=O)N2C[C@H](OCC)C[C@H]2C(=O)N(C)C2(CCC2)C(=O)N(C)[C@@H](C2CCCC2)C(=O)N(C)[C@H](C(=O)N2CCCCC2)CC(=O)N1C [PP3095, (2S,8S,12R,14S,20S,23S,27S,30S,36S,38Z)-20-cyclopentyl-32-cyclopropyl-12-ethoxy-8-[2-[3-methoxy-4-(trifluoromethyl)phenyl]ethyl]-4,16,19,22,26,35-hexamethyl-30-[(1S)-1-methylpropyl]-23-(piperidine-1-carbonyl)-27-propyl-2-[[4-(trifluoromethyl)phenyl]methyl]spiro[1,4,7,10,16,19,22,26,29,32,35-undecazatricyclo[34.5.1.0^10,14]dotetracont-38-ene-17,1′-cyclobutane]-3,6,9,15,18,21,25,28,31,34,42-undecone]	0.67	0.67	33.7	A (a compound having 10 or more and less than 20 is denoted as A)	A (a compound having 10 or more and less than 20 is denoted as A)	A (a compound having 10 or more and less than 20 is denoted as A)	A (a compound having 10 or more and less than 20 is denoted as A)
CCC[C@H]1C(=O)N[C@@H]([C@@H](C)CC)C(=O)N(C2CC2)CC(=O)N(C)[C@H]2C/C=C\CCN(C2=O)[C@@H](Cc2ccc(C(F)(F)F)cc2)C(=O)N(C)CC(=O)N[C@@H](CCc2ccc(C(F)(F)F)c(OC)c2)C(=O)N2C[C@H](OCC)C[C@H]2C(=O)N(C)C2(CCC2)C(=O)N(C)[C@@H](C2CCCC2)C(=O)N(C)[C@H](C(=O)N2CCCC2)CC(=O)N1C [PP3097]	0.38	0.38	5.4	A (a compound having 10 or more and less than 20 is denoted as A)	A (a compound having 10 or more and less than 20 is denoted as A)	A (a compound having 10 or more and less than 20 is denoted as A)	A (a compound having 10 or more and less than 20 is denoted as A)
CCC[C@H]1C(=O)N[C@@H]([C@@H](C)CC)C(=O)N(C2CC2)CC(=O)N(C)[C@H]2C/C=C\CCN(C2=O)[C@@H](Cc2ccc(C)cc2)C(=O)N(C)CC(=O)N[C@@H](CCc2ccc(C(F)(F)F)c(OC)c2)C(=O)N2C[C@H](OCC)C[C@H]2C(=O)N(C)C2(CCC2)C(=O)N(C)[C@@H](C2CCCC2)C(=O)N(C)[C@H](C(=O)N2CCCC2)CC(=O)N1C [PP3098, (2S,8S,12R,14S,20S,23S,27S,30S,36S,38Z)-20-cyclopentyl-32-cyclopropyl-12-ethoxy-8-[2-[3-methoxy-4-(trifluoromethyl)phenyl]ethyl]-4,16,19,22,26,35-hexamethyl-30-[(1S)-1-methylpropyl]-27-propyl-2-(p-tolylmethyl)-23-(pyrrolidine-1-carbonyl)spiro[1,4,7,10,16,19,22,26,29,32,35-undecazatricyclo[34.5.1.0^10,14]dotetracont-38-ene-17,1′-cyclobutane]-3,6,9,15,18,21,25,28,31,34,42-undecone]	0.24	0.24	4.7	A (a compound having 10 or more and less than 20 is denoted as A)	A (a compound having 10 or more and less than 20 is denoted as A)	A (a compound having 10 or more and less than 20 is denoted as A)	A (a compound having 10 or more and less than 20 is denoted as A)
CCC[C@H]1C(=O)N[C@@H]([C@@H](C)CC)C(=O)N2CCC[C@H]2C(=O)N(C)[C@H]2C/C=C\CCN(C2=O)[C@@H](Cc2ccc(C(F)(F)F)cc2)C(=O)N(C)CC(=O)N[C@@H](CCc2ccc(C(F)(F)F)c(OC)c2)C(=O)N2C[C@H](OCC)C[C@H]2C(=O)N(C)C2(CCC2)C(=O)N(C)[C@@H](C2CCCC2)C(=O)N(C)[C@H](C(=O)N2CCCCC2)CC(=O)N1C [PP3099]	0.61	0.61	13.3	A (a compound having 10 or more and less than 20 is denoted as A)	A (a compound having 10 or more and less than 20 is denoted as A)	A (a compound having 10 or more and less than 20 is denoted as A)	A (a compound having 10 or more and less than 20 is denoted as A)
CCC[C@H]1C(=O)N[C@@H]([C@@H](C)CC)C(=O)N2CCC[C@H]2C(=O)N(C)[C@H]2C/C=C\CCN(C2=O)[C@@H](Cc2ccc(C)cc2)C(=O)N(C)CC(=O)N[C@@H](CCc2ccc(C(F)(F)F)c(OC)c2)C(=O)N2C[C@H](OCC)C[C@H]2C(=O)N(C)C2(CCC2)C(=O)N(C)[C@@H](C2CCCC2)C(=O)N(C)[C@H](C(=O)N2CCCCC2)CC(=O)N1C [PP3100, (1S,4S,10S,13S,17S,20S,26S,28R,32S,38S,42Z)-20-cyclopentyl-28-ethoxy-32-[2-[3-methoxy-4-(trifluoromethyl)phenyl]ethyl]-2,14,18,21,24,36-hexamethyl-10-[(1S)-1-methylpropyl]-17-(piperidine-1-carbonyl)-13-propyl-38-(p-tolylmethyl)spiro[2,8,11,14,18,21,24,30,33,36,39-undecazatetracyclo[37.5.1.0^4,8.0^26,30]pentatetracont-42-ene-23,1′-cyclobutane]-3,9,12,15,19,22,25,31,34,37,45-undecone]	0.29	0.29	15	A (a compound having 10 or more and less than 20 is denoted as A)	A (a compound having 10 or more and less than 20 is denoted as A)	B (a compound having 3 or more and less than 10 is denoted as B)	B (a compound having 3 or more and less than 10 is denoted as B)
